These results are taken from patent US10851072B2 (THE REGENTS OF THE UNIVERSITY OF MICHIGAN, priority 2018, dated 2020).

The subject of data set [1] is C57BL/6J mice. Description: In vivo testing for antifibrotic effects (bleomycin skin injections). The conditions noted are these: skin of bleomycin-injected mice, A1 3 or 10 mg/kg PO daily, fourteen days. As to the method:
C57BL/6J mice were ordered from Jackson labs for delivery at 15-16 weeks of age. Mice were preconditioned with supplemental chow for two weeks prior to start of experiment. Mice were randomized by weight into four groups (vehicle, A1 (3 mg/kg), A1 (10 mg/kg), PBS). Each group consisted of two cages with four mice per cage. Drug stock solutions were aliquoted and stored at 4° C. for the duration of the study. Aliquots were warmed to 37° C. and briefly vortexed prior to filling the gavage syringes. Vehicle and A1 groups received daily bleomycin injections (0.1 mL, ID) each afternoon in a defined area of shaved dorsal skin. PBS control group received daily injections (0.1 mL, ID) of PBS in the afternoon. Mice were anesthetized with ketamine/xylazine for ID injections. […]
Fixed skin was paraffin embedded and sectioned at the University of Michigan Comprehensive Cancer Center Histology Core. […] Stained sections were analyzed with an Olympus BX51\DP72 microscope. Dermal thickness was determined by measuring the maximal distance between the epidermal-dermal junction and the dermal-subcutaneous fat junction. […]
Skin sections were weighed and hydrolyzed in 6M HCl at 120° C. for three hours. […] Absorbance was measured at 560 nm using a Synergy HT microplate reader (BioTek Instruments). […]

Data set [2] deals with serum response element (SRE). The experiment in a line: SRE.L-Luciferase Reporter Assay. Type of data set: cell-based. As to conditions: Homo sapiens; Table D; HEK-293T cells co-transfected with Gα12Q231L, SRE.L and pRL-TK plasmids; 19 hrs treatment. As for the experimental part: Biological activity of the compounds disclosed herein were assessed in the SRE.L luciferase reporter assay. HEK-293T cells were co-transfected with 2 ng of the Gα12Q231L expression plasmid along with 50 ng of the SRE.L and 7 ng of the pRL-TK luciferase reporter plasmids, as described in the Materials and Methods section. Cells were treated with 0 (vehicle, DMSO alone), 1, 3, 10, 30, and 100 μM of a compound disclosed herein for 19 hrs after transfection before lysis. Luminescence was determined as described in the Materials and Methods section. Just before cell lysis, the viability of the cells was measured using the WST-1 cell proliferation reagent as described in the Materials and Methods section. Data are expressed as percentage of inhibition (DMSO alone=0%). The experiments were performed three separate times to achieve n=3 in triplicate.
For orientation: In a reporter assay the amount or activity of a reporter protein is the signal.

Data set [3] in a line: MLM metabolic stability (half-life). The conditions noted are these: mouse, mouse liver microsomes (MLM), 1 μM compound, beta-NADPH 1 mM, 60 min, LC-MS, read-out: MLM T1/2. The data set is classed as in vitro ADME, mice. As for the experimental part:
Compounds (1 μM) were incubated with MLM in the presence of beta-NADPH (1 mM) for 60 min. The remaining drug concentration was measured using LC-MS using multiple reaction monitoring (MRM) mode. Both initial and overall disappearance rate and half-lives were calculated. […] Verapamil was run as a positive control in every assay; its half-life could not exceed 4 min or the assay was considered invalid.
For orientation: Liver microsomes are vesicles of endoplasmic reticulum, rich in cytochrome P450 enzymes.

Consider `O=C(O)CCCSc1nnc(-c2ccc(C3CC3)cc2Cl)o1` [Compound A1, 4-((5-(2-chloro-4-cyclopropylphenyl)-1,3,4-oxadiazol-2-yl)thio)butanoic acid], for which, in data set [1] (Masson's trichrome, dermal thickness, FIG. 2), the collagen thickness result is on record as “reduction”. Besides, in data set [1] (FIG. 1), the hydroxyproline content entry is reported as “reduction”. Also, 1.2 pM corresponded to half-maximal inhibition in data set [2] (IC50). The half-life at 1 μM in data set [3] came out at 47 min.
